US20240018198A1, “MU-DIGUETOXIN-DC1A VARIANT POLYPEPTIDES FOR PEST CONTROL” (Vestaron Corporation, priority 2020, published 2024)
linker = not defined here; ERSP = not defined here

Key:
[1] = test system: Adult houseflies (Musca domestica); assay: Housefly injection assay with plant-expressed proteins (TSP extract); assay type: in vivo; conditions: 2 hours post-injection; 0.5 μL TSP extract per fly; impacted = knock-down and dead
Description: Full length DVP-insecticidal protein was purified from the tobacco by using a manual extraction technique. Leaf tissue was obtained via 30 mm diameter punch, from the infiltrated area, rolled up and placed inside a 2 mL conical bottom tube with two, 5/32 inch diameter stainless steel grinding balls, and frozen in liquid nitrogen. The samples were then homogenized using a Troemner-Talboys High Throughput Homogenizer. Next, a 750 μL ice-cold total soluble protein (TSP) extraction solution (sodium phosphate solution 50 mM, EDTA 1 mM, pH 7.0) was added into the tube and vortexed. The microtube was then left to incubate at room temperature for 15 minutes, and then centrifuged at 16,000×g for 15 minutes at 4° C. Next, 100 μL of the resulting supernatant was taken and loaded into pre-Sephadex G-50-packed column in 0.45 μm Millipore MultiScreen filter microtiter plate with empty receiving Costar microtiter plate on bottom. The microtiter plates were then centrifuged at 800 g for 2 minutes at 4° C. The resulting filtrate solution (hereinafter “total soluble protein extract” or “TSP extract”) of the tobacco leaves, was ready for downstream analysis.
Houseflies were injected with the TSP extract obtained from the plant extraction process described above. Prior to injection, adult houseflies (Musca domestica) were immobilized with CO2, and selected for injection based on weight (12-20 mg). […] Impacted scores include knock-down and dead.

[2] = test system: Corn earworm (Helicoverpa zea); assay: Screen for mutants improving CEW activity (injection of concentrated supernatants); assay type: in vivo
Description: Mutations of Dc1a were made to screen for recovery of CEW activity. Here, mutants were synthesized and cloned according the methods described above. […] Supernatants were combined and concentrated 10× using centrifugal filtration cassettes (Pall) with a 3000 Da molecular weight cutoff. Concentrates were then injected into Corn earworm (Helicoverpa zea).
Corn earworm (CEW) larvae were injected in their fourth instar. Eggs of H zea were purchased (Benzon Research, 7 Kuhn Dr, Carlisle, PA, 17015) and reared to fourth instar on General Purpose Lepidoptera Diet (Frontier Agricultural Science, Newark, DE). Prior to injection larvae were weighed in order to calculate μmol/g doses. Injections volumes are 1 μL, and were performed with a 30 gauge needle and glass syringe in a hand microapplicator (Burkard, Rickmansworth, Herts, England). The injection site was near the base of one of the hindmost prolegs. Following the injection, larvae are placed in a new enclosure with General Purpose Lepidoptera Diet and their condition (including mortality, sublethal effects, and behavior) is evaluated 24-hours post-injection.

Substance	% Impacted [1] [%]	Activity ([2]; Table 9: CEW fourth instar, 10x concentrated supernatants, 1 μL injection, 24 hours)	CEW KD50 ([2]; Table 10: category relative to WT)
M3: plant-expressed DVP-insecticidal protein ERSP-UBI-L-DVP-HIS, DVP SEQ ID NO 189 ({ERSP-ubiquitin-linker}-AKDGDVEGPAGCKKYDVECDSGECCQKQYLWHKWRALDCRCLKSGFFSSKCVCRDV-{His tag}; cysteine pairing not given here; reading uncertain)	80		
M1: plant-expressed DVP-insecticidal protein ERSP-UBI-L-DVP-HIS, DVP SEQ ID NO 187 ({ERSP-ubiquitin-linker}-AKDGDVEGPAGCKKYDVECDSGECCQKQYLWSKWRALDCRCLKSGFFSSKCVCRDV-{His tag}; cysteine pairing not given here; reading uncertain)	60		
M4: plant-expressed DVP-insecticidal protein ERSP-UBI-L-DVP-HIS, DVP SEQ ID NO 190 ({ERSP-ubiquitin-linker}-AKDGDVEGPAGCKKYDVECDSGECCQKQYLFSKWRPLDCRCLKSGFFSSKCVCRDV-{His tag}; cysteine pairing not given here; reading uncertain)	100		
C41K/C51E/D38A/L42V: Mu-diguetoxin-Dc1a variant polypeptide; printed sequences differ at position 41 (D in Table 1, K in Table 9) (AKDGDVEGPAGCKKYDVECDSGECCQKQYLWYKWRPLACRKVKSGFFSSKEVCRDV; C41K/ C51E/ D38A/ L42V DVP)		Yes	Reduced (Reduced=>1.5)
M2: plant-expressed DVP-insecticidal protein ERSP-UBI-L-DVP-HIS, DVP SEQ ID NO 188 ({ERSP-ubiquitin-linker}-AKDGDVEGPAGCKKYDVECDSGECCQKQYLWKKWRALDCRCLKSGFFSSKCVCRDV-{His tag}; cysteine pairing not given here; reading uncertain)	60		
